Experimental data taken from doi:10.1101/2024.08.19.608619, “Discovery of potent SARS-CoV-2 nsp3 macrodomain inhibitors uncovers lack of translation to cellular antiviral response” (bioRxiv, 2024).
Like-named read-outs stand apart in the source and are kept apart here.

Tests used:
[1] = target: T1, SARS-CoV-2 nsp3-mac1 (Severe acute respiratory syndrome coronavirus 2, UniProt P0DTD1); experiment: biochemical; type: biochemical; conditions: SARS-CoV-2 nsp3 macrodomain TR-FRET single point
[2] = target: T1, SARS-CoV-2 nsp3-mac1; experiment: biochemical; set-up: SARS-CoV-2 nsp3 macrodomain TR-FRET single point, per cent inhibition, n=2
[3] = read-out: perc_inhibition_mean, batch_name=ASAP-0000267-001
[4] = read-out: perc_inhibition_mean, batch_name=ASAP-0000249-001
[5] = read-out: perc_inhibition_mean, batch_name=ASAP-0000305-001
[6] = read-out: perc_inhibition_mean, batch_name=ASAP-0000404-001
[7] = read-out: perc_inhibition_mean, batch_name=ASAP-0000354-001
[8] = read-out: perc_inhibition_mean, batch_name=ASAP-0000196-002
[9] = read-out: perc_inhibition_mean, batch_name=ASAP-0000339-001
[10] = read-out: perc_inhibition_mean, batch_name=ASAP-0000452-001
[11] = read-out: perc_inhibition_mean, batch_name=ASAP-0000482-001
[12] = read-out: perc_inhibition_mean, batch_name=ASAP-0000347-001
[13] = read-out: perc_inhibition_mean, batch_name=ASAP-0000296-001
[14] = read-out: perc_inhibition_mean, batch_name=ASAP-0000245-001
[15] = read-out: perc_inhibition_mean, batch_name=ASAP-0000297-001
[16] = read-out: perc_inhibition_mean, batch_name=ASAP-0000295-001

O=C(Nc1cnc2[nH]ncc2c1)c1cccc(-c2noc(C(F)(F)F)n2)c1 [ASAP-0000267]
perc_inhibition_mean ([1]; concentration 50.0 uM, n=2): -0.675% | perc_inhibition_mean ([1]; concentration 100.0 uM, n=2): -1.621% | inhibition at 50 µM [2, 3]: -0.675% | inhibition at 100 µM [2, 3]: -1.62%

OC[C@H](Cc1ccccc1)Nc1ncnc2[nH]ccc12 [ASAP-0000249]
perc_inhibition_mean ([1]; concentration 50.0 uM): -1.29% | perc_inhibition_mean ([1]; concentration 100.0 uM): 8.928% | inhibition at 50 µM [2, 4]: -1.29% | inhibition at 100 µM [2, 4]: 8.93%

CS(=O)(=O)N1CC[C@@H](COC(=O)c2ncnc3[nH]ccc23)C1 [ASAP-0000040]
perc_inhibition_mean ([1]; concentration 50.0 uM): 0.187% | inhibition at 50 µM ([2]; read-out: perc_inhibition_mean, batch_name=ASAP-0000040-001): 0.187%

CC1(C)CNCCN1C(=O)c1ccc(NC(=O)Nc2ccccc2)cc1 [ASAP-0000305]
perc_inhibition_mean ([1]; concentration 49.75 uM, n=2): 2.242% | perc_inhibition_mean ([1]; concentration 99.5 uM, n=2): 1.393% | inhibition at 49.75 µM [2, 5]: 2.24% | inhibition at 99.5 µM [2, 5]: 1.39%

O=C(c1ccccc1)N1CCC(c2ccn3ncc(C(=O)N4CCn5ncnc5C4)c3c2)CC1 [ASAP-0000404]
perc_inhibition_mean ([1]; concentration 49.75 uM): -3.769% | perc_inhibition_mean ([1]; concentration 99.5 uM): -3.519% | inhibition at 49.75 µM [2, 6]: -3.77% | inhibition at 99.5 µM [2, 6]: -3.52%

Cc1ccc(NC(=O)c2cnn3ccc(C4CCN(C(=O)c5ccccc5)CC4)cc23)cc1C(=O)O [ASAP-0000354]
perc_inhibition_mean ([1]; concentration 49.75 uM): -1.047% | perc_inhibition_mean ([1]; concentration 99.5 uM): -0.624% | inhibition at 49.75 µM [2, 7]: -1.05% | inhibition at 99.5 µM [2, 7]: -0.624%

c1cc(-c2nnc(Sc3ncnc4[nH]ccc34)[nH]2)ccn1 [ASAP-0000196]
perc_inhibition_mean ([1]; concentration 50.0 uM): 5.47% | perc_inhibition_mean ([1]; concentration 50.0 uM, n=2): 10.682% | perc_inhibition_mean ([1]; concentration 100.0 uM, n=2): 3.318% | inhibition at 50 µM ([2]; read-out: perc_inhibition_mean, batch_name=ASAP-0000196-001): 5.47% | inhibition at 50 µM [2, 8]: 10.7% | inhibition at 100 µM [2, 8]: 3.32%

CN(Cc1cn(C)nn1)C(=O)c1ccc(NC(=O)Nc2ccccc2)cc1 [ASAP-0000339]
perc_inhibition_mean ([1]; concentration 49.75 uM, n=2): 0.883% | perc_inhibition_mean ([1]; concentration 99.5 uM, n=2): 0.566% | inhibition at 49.75 µM [2, 9]: 0.883% | inhibition at 99.5 µM [2, 9]: 0.566%

Cc1ncc(NCc2cc3n(n2)CCOC3)cc1C(N)=O [ASAP-0000104]
perc_inhibition_mean ([1]; concentration 50.0 uM): 0.46% | inhibition at 50 µM ([2]; read-out: perc_inhibition_mean, batch_name=ASAP-0000104-001): 0.46%

CC(C)[C@@H](Nc1ncnc2[nH]ccc12)C(F)F [ASAP-0000452]
perc_inhibition_mean ([1]; concentration 49.75 uM): 81.614% | perc_inhibition_mean ([1]; concentration 99.5 uM): 91.659% | inhibition at 49.75 µM [2, 10]: 81.6% | inhibition at 99.5 µM [2, 10]: 91.7%

CC(C)[C@@H](Nc1ncnc2[nH]ccc12)C(=O)N(C)Cc1nnc2n1CCC2 [ASAP-0000482]
perc_inhibition_mean ([1]; concentration 49.75 uM): -8.89% | perc_inhibition_mean ([1]; concentration 99.5 uM): -6.138% | inhibition at 49.75 µM [2, 11]: -8.89% | inhibition at 99.5 µM [2, 11]: -6.14%

O=C(N[C@@H]1CCCNC1=O)c1cnn2ccc(C3CCN(C(=O)c4ccccc4)CC3)cc12 [ASAP-0000347]
perc_inhibition_mean ([1]; concentration 49.75 uM, n=2): -3.161% | perc_inhibition_mean ([1]; concentration 99.5 uM, n=2): -4.869% | inhibition at 49.75 µM [2, 12]: -3.16% | inhibition at 99.5 µM [2, 12]: -4.87%

O=C(Nc1ccccc1)Nc1ccc(C(=O)N[C@H]2CC[C@H](CO)CC2)cc1 [ASAP-0000296]
perc_inhibition_mean ([1]; concentration 49.75 uM, n=2): -0.639% | perc_inhibition_mean ([1]; concentration 99.5 uM, n=2): -2.577% | inhibition at 49.75 µM [2, 13]: -0.639% | inhibition at 99.5 µM [2, 13]: -2.58%

NC(=O)[C@@H]1CCN(C(=O)c2cnc3[nH]c(=O)[nH]c(=O)c3c2)C1 [ASAP-0000062]
perc_inhibition_mean ([1]; concentration 50.0 uM): -6.322% | inhibition at 50 µM ([2]; read-out: perc_inhibition_mean, batch_name=ASAP-0000062-001): -6.32%

CCC[C@@](C)(NC(=O)c1ncnc2[nH]ccc12)C(=O)OC [ASAP-0000082]
perc_inhibition_mean ([1]; concentration 50.0 uM): -6.621% | inhibition at 50 µM ([2]; read-out: perc_inhibition_mean, batch_name=ASAP-0000082-001): -6.62%

FC(F)(F)Oc1ccccc1-c1ncnc2[nH]ccc12 [ASAP-0000245]
perc_inhibition_mean ([1]; concentration 50.0 uM): -3.369% | perc_inhibition_mean ([1]; concentration 100.0 uM): 2.117% | inhibition at 50 µM [2, 14]: -3.37% | inhibition at 100 µM [2, 14]: 2.12%

CC1(C)CN(C(=O)c2ccc(NC(=O)Nc3ccccc3)cc2)C[C@@]1(F)C(=O)O [ASAP-0000297]
perc_inhibition_mean ([1]; concentration 49.75 uM, n=2): -2.566% | perc_inhibition_mean ([1]; concentration 99.5 uM, n=2): -5.193% | inhibition at 49.75 µM [2, 15]: -2.57% | inhibition at 99.5 µM [2, 15]: -5.19%

O=C(Nc1ccccc1)Nc1ccc(C(=O)N2CCc3nc[nH]c3C2)cc1 [ASAP-0000295]
perc_inhibition_mean ([1]; concentration 49.75 uM, n=2): -3.024% | perc_inhibition_mean ([1]; concentration 99.5 uM, n=2): -2.379% | inhibition at 49.75 µM [2, 16]: -3.02% | inhibition at 99.5 µM [2, 16]: -2.38%
